Consider 22 compounds from US8653100B2 (AbbVie Inc., priority 2008, dated 2014).

Counter-ions that a name gives are not always drawn.

Chain of human GlyT1c transporter (P48067 whole entry): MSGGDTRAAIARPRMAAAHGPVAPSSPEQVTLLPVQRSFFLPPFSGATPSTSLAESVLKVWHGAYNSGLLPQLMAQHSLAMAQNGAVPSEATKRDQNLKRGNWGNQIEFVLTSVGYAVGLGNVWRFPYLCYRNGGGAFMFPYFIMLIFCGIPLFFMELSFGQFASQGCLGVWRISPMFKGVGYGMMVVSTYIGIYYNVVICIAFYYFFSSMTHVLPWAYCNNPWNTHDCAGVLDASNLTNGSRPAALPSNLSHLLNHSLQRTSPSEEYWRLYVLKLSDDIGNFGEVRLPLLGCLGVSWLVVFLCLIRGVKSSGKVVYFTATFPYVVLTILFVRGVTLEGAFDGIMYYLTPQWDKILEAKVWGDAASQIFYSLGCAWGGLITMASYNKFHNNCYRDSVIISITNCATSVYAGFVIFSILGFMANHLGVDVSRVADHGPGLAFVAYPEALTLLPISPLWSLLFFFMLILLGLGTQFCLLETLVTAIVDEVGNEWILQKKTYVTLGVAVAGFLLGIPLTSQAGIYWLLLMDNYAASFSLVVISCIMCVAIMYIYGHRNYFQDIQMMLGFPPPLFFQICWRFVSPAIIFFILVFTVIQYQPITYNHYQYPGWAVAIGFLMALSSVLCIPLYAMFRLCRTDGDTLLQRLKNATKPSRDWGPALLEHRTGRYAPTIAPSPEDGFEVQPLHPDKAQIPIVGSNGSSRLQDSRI

The first test deals with human GlyT1c transporter (Homo sapiens (Human), UniProt P48067). In words: Radioligand binding assay using recombinant CHO cell membranes expressing human GlyT1. Conditions: examples 88-204, radioligand not specified by footnote, hydrochloride, read-out: radioligand binding Kiapp. As for the experimental part: 2. Radioligand binding assays using recombinant CHO cell membranes expressing human GlyT1:
Radioligand binding to human GlyT1c transporter-expressing membranes was carried out as described in Mezler et al., Molecular Pharmacology 74:1705-1715, 2008.
More specifically, [^3H]-(R)-NPTS radioligand binding to human GlyT1c transporter-expressing membranes was measured in duplicate in a total volume of 200 μl in 96-well plates. To 100 μl of membrane suspension (yielding a final membrane protein concentration of 50 μg/ml) in assay buffer (120 mM NaCl, 2 mM KCl, 10 mM Hepes, 1 mM MgCl2, 1 mM CaCl2, pH 7.5) […] of [^3H]-(R)-NPTS (0.5 nM final) were added in assay buffer. For competition experiments 10 μl of buffer or unlabeled compound solution obtained from dilution series of test compounds in DMSO followed. An intermediate 1:10 dilution in assay buffer yielded a final DMSO concentration of 1%. Non-specific binding was determined in the presence of 10 μM Org24598 (or its racemate Org24461) for [^3H]-(R)-NPTS. After incubation at room temperature for 1 h, the incubation mixture was harvested (Tomtec Mach III U Harvester) through 96-well GF/B filter plates (PerkinElmer), presoaked for 1 h with 40 μl per well of 0.1% polyethylene-imine (PEI). After washing twice with ice-cold 50 mM Tris-HCl pH 7.4 buffer, drying and addition of 35 μl scintillator (BetaplateScint, PerkinElmer) per well followed. The radioactivity was determined by liquid scintillation spectrometry in a MicroBeta (PerkinElmer) plate counter.
Data analysis: For binding of [^3H]-(R)-NPTS to cell membranes, the calculation of Kd and Bmax values from the saturation binding assays and the IC50 values from the displacement binding was performed by iterative non-linear regression analysis adapted from the ‘Ligand’ program (Munson and Rodbard, 1980). Radioligand displacement curves in absence or in presence of increasing concentrations of tested compounds were fitted using a one-site fit and the apparent Ki values were calculated from the IC50 values using the Cheng-Prusoff equation (Cheng and Prusoff 1973).
In the case of `O=S(=O)(NCCOc1ccc2c(c1)[C@H](C1(c3ccc(Cl)cc3)CCC1)NCC2)c1cccnc1` [Example 141, N-[2-({(1S)-1-[1-(4-Chlorophenyl)cyclobutyl]-1,2,3,4-tetrahydroisoquinolin-7-yl}oxy)ethyl]pyridine-3-sulfonamide hydrochloride], the Ki was at most 100 nM.

The test is the same for the next values; noted with them: examples 88-204, radioligand not specified by footnote, read-out: radioligand binding Kiapp.
In the case of `O=S(=O)(Nc1ccc(Oc2ccc3c(c2)C(C2(c4ccc(Cl)cc4)CCC2)NCC3)nc1)c1cccs1` (stereo not shown) [Example 124, N-[6-({1-[1-(4-Chlorophenyl)cyclobutyl]-1,2,3,4-tetrahydroisoquinolin-7-yl}oxy)pyridin-3-yl]thiophene-2-sulfonamide dihydrochloride], the Ki was at most 10000 nM. Regarding `CCCS(=O)(=O)NCc1ccc2c(c1)C(C1(c3ccccn3)CCC1)NCC2` (stereo not shown) [Example 125, N-({1-[1-(Pyridin-2-yl)cyclobutyl]-1,2,3,4-tetrahydroisoquinolin-7-yl}methyl)propane-1-sulfonamide trifluoroacetate], the Ki was at most 10000 nM. Same read-out and setting: to `O=S(=O)(Nc1cccnc1Oc1ccc2c(c1)C(C1(c3ccc(Cl)cc3)CCC1)NCC2)c1cccs1` (stereo not shown) [Example 127, N-[2-({1-[1-(4-Chlorophenyl)cyclobutyl]-1,2,3,4-tetrahydroisoquinolin-7-yl}oxy)pyridin-3-yl]thiophene-2-sulfonamide dihydrochloride] belongs at most 10000 nM; to `CCCS(=O)(=O)Nc1cccnc1Oc1ccc2c(c1)C(C1(c3ccc(Cl)cc3)CCC1)NCC2` (stereo not shown) [Example 128, N-[2-({1-[1-(4-Chlorophenyl)cyclobutyl]-1,2,3,4-tetrahydroisoquinolin-7-yl}oxy)pyridin-3-yl]propane-1-sulfonamide dihydrochloride], at most 10000 nM; to `N#Cc1ccc2c(c1)C(C1(c3ccccn3)CCC1)NCC2` (stereo not shown) [Example 129, 1-[1-(Pyridin-2-yl)cyclobutyl]-1,2,3,4-tetrahydroisoquinoline-7-carbonitrile hydrochloride], at most 10000 nM. In the case of `O=S(=O)(Nc1ccc(Oc2ccc3c(c2)C(C2(c4ccc(Cl)cc4)CCC2)NCC3)nc1)c1cccnc1` (stereo not shown) [Example 131, N-[6-({1-[1-(4-Chlorophenyl)cyclobutyl]-1,2,3,4-tetrahydroisoquinolin-7-yl}oxy)pyridin-3-yl]pyridine-3-sulfonamide trihydrochloride], the Ki is at most 10000 nM. For the compound `O=S(=O)(CC1CC1)NCc1ccc2c(c1)C(C1(c3ccccn3)CCC1)NCC2` (stereo not shown) [Example 134, 1-Cyclopropyl-N-({1-[1-(pyridin-2-yl)cyclobutyl]-1,2,3,4-tetrahydroisoquinolin-7-yl}methyl)methanesulfonamide trifluoroacetate], the Ki is at most 10000 nM. `O=S(=O)(Nc1cccnc1Oc1ccc2c(c1)C(C1(c3ccc(Cl)cc3)CCC1)NCC2)c1cccnc1` (stereo not shown) [Example 136, N-[2-({1-[1-(4-Chlorophenyl)cyclobutyl]-1,2,3,4-tetrahydroisoquinolin-7-yl}oxy)pyridin-3-yl]pyridine-3-sulfonamide trihydrochloride]: the Ki was at most 10000 nM. For `NCCCNS(=O)(=O)CCCOc1ccc2c(c1)C(C1(c3ccc(Cl)cc3)CCC1)NCC2` (stereo not shown) [Example 137, N-(3-Aminopropyl)-3-({1-[1-(4-chlorophenyl)cyclobutyl]-1,2,3,4-tetrahydroisoquinolin-7-yl}oxy)propane-1-sulfonamide dihydrochloride], the Ki is at most 10000 nM.

Turning to `CCCS(=O)(=O)NCCOc1ccc2c(c1)C(C(C)(C)c1ccc(Cl)cc1)NCC2` (stereo not shown) [Example 139, N-[2-({1-[2-(4-Chlorophenyl)propan-2-yl]-1,2,3,4-tetrahydroisoquinolin-7-yl}oxy)ethyl]propane-1-sulfonamide], the Ki was at most 100 nM. On the same count and under the same terms, to `O=S(=O)(CCCF)NCCOc1ccc2c(c1)C(C1(c3ccc(Cl)cc3)CCC1)NCC2` (stereo not shown) [Example 140, N-[2-({1-[1-(4-Chlorophenyl)cyclobutyl]-1,2,3,4-tetrahydroisoquinolin-7-yl}oxy)ethyl]-3-fluoropropane-1-sulfonamide hydrochloride] belongs at most 100 nM; to `CN(C)S(=O)(=O)NCCOc1ccc2c(c1)C(C1(c3ccc(Cl)cc3)CCC1)NCC2` (stereo not shown) [Example 143, N′-[2-({1-[1-(4-Chlorophenyl)cyclobutyl]-1,2,3,4-tetrahydroisoquinolin-7-yl}oxy)ethyl]-N,N-dimethylsulfuric diamide hydrochloride], at most 100 nM. `O=S(=O)(CCC(F)(F)F)NCCOc1ccc2c(c1)C(C1(c3ccc(Cl)cc3)CCC1)NCC2` (stereo not shown) [Example 144, N-[2-({1-[1-(4-Chlorophenyl)cyclobutyl]-1,2,3,4-tetrahydroisoquinolin-7-yl}oxy)ethyl]-3,3,3-trifluoropropane-1-sulfonamide hydrochloride]: the Ki was at most 100 nM. With `NCCS(=O)(=O)NCCOc1ccc2c(c1)[C@H](C1(c3ccc(Cl)cc3)CCC1)NCC2` [Example 146, 2-Amino-N-[2-({(1S)-1-[1-(4-chlorophenyl)cyclobutyl]-1,2,3,4-tetrahydroisoquinolin-7-yl}oxy)ethyl]ethanesulfonamide dihydrochloride], the Ki was at most 100 nM.

As to `Nc1ccc(S(=O)(=O)NCCOc2ccc3c(c2)C(C2(c4ccc(Cl)cc4)CCC2)NCC3)cc1` (stereo not shown) [Example 147, 4-Amino-N-[2-({1-[1-(4-chlorophenyl)cyclobutyl]-1,2,3,4-tetrahydroisoquinolin-7-yl}oxy)ethyl]benzenesulfonamide dihydrochloride], the Ki is at most 100 nM. On to `CN(C)CCS(=O)(=O)NCCOc1ccc2c(c1)C(C1(c3ccc(Cl)cc3)CCC1)NCC2` (stereo not shown) [Example 149, N-[2-({1-[1-(4-Chlorophenyl)cyclobutyl]-1,2,3,4-tetrahydroisoquinolin-7-yl}oxy)ethyl]-2-(dimethylamino)ethanesulfonamide (2E)-but-2-enedioate], for which the Ki is at most 100 nM. On to `Nc1ncc(S(=O)(=O)NCCOc2ccc3c(c2)C(C2(c4ccc(Cl)cc4)CCC2)NCC3)cn1` (stereo not shown) [Example 150, 2-Amino-N-[2-({1-[1-(4-chlorophenyl)cyclobutyl]-1,2,3,4-tetrahydroisoquinolin-7-yl}oxy)ethyl]pyrimidine-5-sulfonamide], for which the Ki is at most 100 nM. For the compound `O=S(=O)(NCCOc1ccc2c(c1)C(C1(c3ccc(Cl)cc3)CCC1)NCC2)c1cn[nH]c1` (stereo not shown) [Example 153, N-[2-({1-[1-(4-Chlorophenyl)cyclobutyl]-1,2,3,4-tetrahydroisoquinolin-7-yl}oxy)ethyl]-1H-pyrazole-4-sulfonamide hydrochloride], the Ki is at most 100 nM. On to `COc1ccc(S(=O)(=O)NCCOc2ccc3c(c2)C(C2(c4ccc(Cl)cc4)CCC2)NCC3)cn1` (stereo not shown) [Example 156, N-[2-({1-[1-(4-Chlorophenyl)cyclobutyl]-1,2,3,4-tetrahydroisoquinolin-7-yl}oxy)ethyl]-6-methoxypyridine-3-sulfonamide hydrochloride], for which the Ki was at most 100 nM.

On to `Nc1cccc(S(=O)(=O)NCCOc2ccc3c(c2)C(C2(c4ccc(Cl)cc4)CCC2)NCC3)c1` (stereo not shown) [Example 157, 3-Amino-N-[2-({1-[1-(4-chlorophenyl)cyclobutyl]-1,2,3,4-tetrahydroisoquinolin-7-yl}oxy)ethyl]benzenesulfonamide dihydrochloride], for which the Ki is at most 100 nM. On the same count and under the same terms, to `O=S(=O)(NCCOc1ccc2c(c1)C(C1(c3ccc(Cl)cc3)CCC1)NCC2)C1CCNC1` (stereo not shown) [Example 159, N-[2-({1-[1-(4-Chlorophenyl)cyclobutyl]-1,2,3,4-tetrahydroisoquinolin-7-yl}oxy)ethyl]pyrrolidine-3-sulfonamide dihydrochloride] belongs at most 100 nM.
